Experimental findings from ChEMBL document CHEMBL1156075, “5,5'- and 6,6'-dialkyl-5,6-dihydro-1H-pyridin-2-ones as potent inhibitors of HCV NS5B polymerase” (Bioorg Med Chem Lett, 2009) are described below.

Data set [1] in a line: in vitro. As to conditions: human, Huh7/C24 cells.
Description: Cytotoxicity against human Huh7/C24 cells after 72 hrs by bDNA assay
Data set [2] is described as follows: in vitro. As to conditions: human, liver microsomes. Background: Liver microsomes are vesicles of endoplasmic reticulum, rich in cytochrome P450 enzymes.
The nature of data set [3]: in vitro. To be noted: human, liver microsomes. This is another data set of the same source.
Data set [4] relates to Hepatitis C virus. The data set is described as follows: microbe, parasite or virus in culture. To be noted: genotype 1b, Huh-7, 72 h.
Data set [5] is described as follows: Apparent permeability from apical to basolateral side in human Caco-2 cells at 10 uM after 3 hrs. It is filed as ADME, cell-based. A general note: Passage across Caco-2 layers is used to estimate intestinal permeability.
Data set [6] in a line: Oral bioavailability in cynomolgus monkey at 1 mg/kg, po. It is filed as ADME, organism-based, Macaca fascicularis. To be noted: in vivo.
A short description of data set [7]: Clearance in cynomolgus monkey at 1 […]. The format is ADME, organism-based, Macaca fascicularis. More on the design: dose 1 mg/kg. As to conditions: in vivo.
A short description of data set [8]: Clearance in cynomolgus monkey at 1 mg/kg, iv. The format is ADME, organism-based, Macaca fascicularis. More on the design: dose 1 mg/kg, route intravenous. As to conditions: in vivo.
For data set [9], the system named is Cynomolgus monkey. As to conditions: in vivo, po, 1 mg/kg.
In data set [10] the test system is Cynomolgus monkey. To be noted: in vivo, iv, 1 mg/kg.
A short description of data set [11]: in vitro. To be noted: human, liver microsomes. The source holds these as a separate data set.
A short description of data set [12]: in vitro. To be noted: cynomolgus monkey, liver microsomes.

For orientation: CC50 means the concentration giving 50% cytotoxicity. The term half-life denotes the time needed for the level to fall by half in the phase considered. In general, EC50 refers to the concentration needed to bring the measured effect to its halfway point. In data set [1], `CC[C@@]1(CCC(C)C)CN(C2CCCC2)C(=O)C(C2=NS(=O)(=O)c3cc(NS(C)(=O)=O)ccc3N2)=C1O` had a 50% cytotoxic concentration (CC50) at 72 h above 1000 nM. Moreover, the half-life at 5 µM in [2] was above 60 min; in data set [3], 3 min. Further, in data set [4], the concentration for a half-maximal effect (EC50) was 300 nM.

As a reminder, the Papp A→B is how fast a substance crosses the layer from the apical side. As a reminder, the bioavailability is dose-corrected exposure relative to a reference, in per cent. The term CL/F denotes the apparent clearance, not corrected for the fraction that reaches the circulation. In general, clearance refers to the volume of plasma or blood freed of the substance per unit of time. One may read the AUC as the area under the concentration-time curve, a measure of exposure. Regarding `CC(C)CC[C@]1(C)CN(C2CCC2)C(=O)C(C2=NS(=O)(=O)c3cc(NS(C)(=O)=O)ccc3N2)=C1O`, in data set [5], the apparent permeability from apical to basolateral (Papp A→B) at 3 h, 10 µM came to 2.9 ×10⁻⁶ cm/s. Further, in data set [6], the bioavailability is 16%. For the same compound, in data set [7], the CL/F was 4.7 mL/min/kg. The clearance in [8] stood at 4.7 mL/min/kg. In addition, the area under the curve (AUC) amounted to 556 ng·h/mL in data set [9] and 3560 ng·h/mL in [10]. The same compound registered a CC50 at 72 h in data set [1] above 10000 nM. Further, the half-life at 5 µM in [11] worked out at 2.2 min; in [12] it was 55 min. This compound returned a concentration for a half-maximal effect (EC50) in data set [4] of 14 nM.

For `C[C@@]1(CCC2CC2)CN(C2CCCC2)C(=O)C(C2=NS(=O)(=O)c3cc(NS(C)(=O)=O)ccc3N2)=C1O`, the CC50 at 72 h in data set [1] was above 10000 nM. Further, the figures for the half-life at 5 µM in [2] and in data set [3] were above 60 min and 3.7 min, respectively. In data set [4], the concentration for a half-maximal effect (EC50) is 170 nM.

In the case of `CC(C)(C)CC[C@]1(C)CN(C2CCCC2)C(=O)C(C2=NS(=O)(=O)c3cc(NS(C)(=O)=O)ccc3N2)=C1O`, the CC50 at 72 h in [1] is above 10000 nM. The half-life at 5 µM in data set [2] was above 60 min; in data set [3] it was 1.6 min. The same compound returned a 50% effective concentration (EC50) in data set [4] of 310 nM.

`CC(C)(C)CC[C@]1(C)CN(C2CCC2)C(=O)C(C2=NS(=O)(=O)c3cc(NS(C)(=O)=O)ccc3N2)=C1O`: the CC50 at 72 h in data set [1] is above 1000 nM. Moreover, the values for the half-life at 5 µM in data set [2] and in data set [3] were above 60 min and 3 min, respectively. This compound also returned a half-maximal effective concentration (EC50) in data set [4] of 460 nM.

`CS(=O)(=O)Nc1ccc2c(c1)S(=O)(=O)N=C(C1=C(O)[C@@H]3CCC[C@@H]3N(Cc3ccc(F)cc3)C1=O)N2`: in [5], the apparent permeability from apical to basolateral (Papp A→B) at 3 h, 10 µM amounted to 1.6 ×10⁻⁶ cm/s. For the same compound, the bioavailability in data set [6] came to 21%. Further, in data set [7], the apparent clearance CL/F stood at 0.63 mL/min/kg. In addition, in [8], the clearance came to 0.63 mL/min/kg. Also, the AUC in data set [9] amounted to 6040 ng·h/mL; in data set [10] it was 29100 ng·h/mL. Further, in [1], the CC50 at 72 h was above 100000 nM. The half-life at 5 µM in [11] and in data set [12] was above 60 min throughout. In data set [4], this compound showed an EC50 of 16 nM.
